Reference: patent US8987285B2, “Pharmaceutical compositions, dosage forms and new forms of the compound of formula (I), and methods of use thereof” (Portola Pharmaceuticals, Inc., priority 2010, dated 2015)

Assay: Pharmacokinetic Study 1: FMI tablets fasted/fed versus reference IR capsule, crossover, healthy adult volunteers
Format: in vivo, human
Settings: for Geometric-mean ratio (Fed/Fasted) of AUCinf / Geometric-mean ratio (Fed/Fasted) of AUClast / Geometric-mean ratio (Fed/Fasted) of Cmax: high fat breakfast versus fasted
Procedure: This was an open label, randomized, four-period, incomplete crossover, single center study in healthy adult volunteers. There were 4 treatments in the study: 3 doses of the FMI (given fasting or fed following a high-fat breakfast) and one reference IR capsule (given fed after a typical breakfast). The term “FMI” refers to the dosage form of Example 7 (30 mg FMI) or Example 8 (75 mg FMI).
Each subject was randomized to 1 of 18 treatment sequences, each with 4 treatment periods (Table 27). The first treatment period consisted of 1 of the 3 doses of FMI given fed, and treatment periods 2 to 4 consisted of 1 dose of IR capsule (fed) and 2 of the 3 doses of the FMI given fasted. […] Each subject therefore had 2 fasting treatments with the FMI formulation, 1 fed treatment with the FMI formulation and a reference treatment (IR capsule). Seventy two subjects enrolled and were dosed in the study with 70 completers.
The study consisted of a 28-day screening period, four baseline periods (one before each treatment period), four treatment periods with a wash out period of a minimum of 5 days, followed by a study completion evaluation approximately 72 hours after the last drug administration. Subjects who met the eligibility criteria at screening were admitted to baseline evaluations. All baseline safety evaluation results were available prior to dosing.
For fasted administration, elinogrel was administered in the morning, following an overnight fast of at least 10 hours. Subjects continued to fast until 4 hours post-dose. For fed administration of FMI tablets, elinogrel was administered in the morning, within 30 minutes of a high fat breakfast (approximately 1000 calories). Subjects continued to fast until 4 hours post-dose. For fed administration of the reference (IR capsule), it was administered in the morning, within 30 minutes of a typical breakfast (approximately 500 calories). Subjects continued to fast until 4 hours post-dose.
Subjects were admitted to the study site approximately 12 hours prior to dosing in each period for baseline evaluations. Following a single dose of elinogrel, PK assessments were taken up to 48 hours post dose and safety assessments were made for up to 72 hours.
Subjects were domiciled for 24 hours post dosing for PK sample collection, at which time they were discharged from the study site. Subjects returned on the following 2 mornings for 48 hour PK and 72 hour safety samples. Following the 72 hour safety assessments of treatment period 4 (or in the case of subject discontinuation) subjects underwent study completion evaluations and were discharged from the study. […].
This was a three-period, four-treatment crossover study design with an add-on food effect period (Period 1).
Treatment 1 (T1)=elinogrel 30 mg FMI dose fasting
Treatment 2 (T2)=elinogrel 75 mg FMI dose fasting
Treatment 3 (T3)=elinogrel 150 mg FMI dose fasting
Reference (R)=elinogrel 150 mg IR capsule dose fed (typical breakfast); Example 6 (Reference)
Fed treatment 1 (F1)=elinogrel 30 mg FMI dose fed (high fat breakfast)
Fed treatment 2 (F2)=elinogrel 75 mg FMI dose fed (high fat breakfast)
Fed treatment 3 (F3)=elinogrel 150 mg FMI dose fed (high fat breakfast)
Subjects will received the following treatments in a randomized order: • Treatment (T1, F1) with IR (IR=immediate release) tablet of Example 7 containing pH-modifying alkalizing agent, 30 mg in fasted and fed state. • Treatment (T2, F2) with IR (IR=immediate release) tablet of Example 8 containing pH-modifying alkalizing agent, 75 mg in fasted and fed state • Treatment (R) with 2×IR (IR=immediate release) capsule of Example 6 (Reference): 2×75 mg (150 mg) in fed state. • Treatment (T3, F3) with 2×IR (IR=immediate release) tablet of Example 8 containing pH-modifying alkalizing agent, 2×75 mg (150 mg) in fasted and fed state.
To evaluate the food effect, the geometric mean ratio for PK parameters of the fed versus fasted for each dose level and its 90% CI was estimated as shown in Table 29 below.

## CNc1cc2[nH]c(=O)n(-c3ccc(NC(=O)NS(=O)(=O)c4ccc(Cl)s4)cc3)c(=O)c2cc1F [compound of formula (II), elinogrel]
30 mg dose
  decrease of AUC by high fat meal: 44-52%
  decrease of Cmax by high fat meal: 58%
75 mg dose
  decrease of AUC by high fat meal: 14-18%
  decrease of Cmax by high fat meal: 36%
150 mg dose
  decrease of AUC by high fat meal: 29-30%
  decrease of Cmax by high fat meal: 48%
FMI 30 mg
  Geometric-mean ratio (Fed/Fasted) of AUCinf: 0.48
  Geometric-mean ratio (Fed/Fasted) of AUClast: 0.56
  Geometric-mean ratio (Fed/Fasted) of Cmax: 0.42
FMI 75 mg
  Geometric-mean ratio (Fed/Fasted) of AUCinf: 0.86
  Geometric-mean ratio (Fed/Fasted) of AUClast: 0.82
  Geometric-mean ratio (Fed/Fasted) of Cmax: 0.64
FMI 150 mg
  Geometric-mean ratio (Fed/Fasted) of AUCinf: 0.71
  Geometric-mean ratio (Fed/Fasted) of AUClast: 0.70
  Geometric-mean ratio (Fed/Fasted) of Cmax: 0.52
